In patent US10330672B2, “Method for screening activator of mitochondrial activity” (INTELLIGENT SYNTHETIC BIOLOGY CENTER, priority 2015, dated 2019):

What was measured:
INS-1 cells [1] = assay: Mitochondrial membrane potential by TMRM staining and FACS in INS-1 cells; type: cell-based; conditions: 10 μM, 2 hours, TMRM staining, vs DMSO control
Experimental: (§1) Initially, the INS-1 cells, which are insulin-secreting cells, were cultured in a cell incubator (37° C., 5% CO2, RPMI medium, 10% FBS), were treated with 10 μM of gypenoside 75, ginsenoside F1, ginsenoside Rg3, ginsenoside Rb2, or ginsenoside Rb3 for 2 hours, and the intracellular ATP amount and mitochondrial membrane potential were measured. For the control group, cells treated with DMSO were used.
In the final stage, the mitochondrial membrane potential was measured by tetramethylrhodamine methyl ester (TMRM) staining. As the level of the TMRM staining increases proportionately to the mitochondrial membrane potential, the intracellular mitochondrial membrane potential can be measured by measuring the level of the TMRM staining.
Specifically, the INS-1 cells treated with each of the above materials were stained with TMRM, and applied to fluorescence-activated cell sorting (FACS). Then, the level of the staining was quantified, analyzed, and compared (FIG. 2).

INS-1 cells [2] = assay: Intracellular ATP amount by luciferase assay in INS-1 cells; type: cell-based; conditions: 10 μM, 2 hours, vs DMSO control
Experimental: as §1
Next, the amount of ATP was measured using luciferase. As the fluorescence by activation of luciferase depends on the amount of ATP, the intracellular ATP amount can be measured by measuring the level of the fluorescence emission.
Specifically, the INS-1 cells treated with each of the above materials were lysed through freezing-thawing and ultrasonication treatments to obtain a cell lysate. Luciferase and luciferin were added to the obtained cell lysate above to induce fluorescence, and the levels of the fluorescence were quantified and compared (FIG. 1).

In the case of CC(C)=CCC[C@](C)(O[C@@H]1O[C@H](CO[C@@H]2O[C@H](CO)[C@@H](O)[C@H](O)[C@H]2O)[C@@H](O)[C@H](O)[C@H]1O)[C@H]1CC[C@]2(C)[C@@H]1[C@H](O)C[C@@H]1[C@@]3(C)CC[C@H](O)C(C)(C)[C@@H]3CC[C@]12C [gypenoside 75], the “increase of intracellular mitochondrial membrane potential compared with the control group” value (INS-1 cells [1]) is reported as 40% and the “increase of intracellular ATP amount compared with the control group” value (INS-1 cells [2]) is reported as 50%.
